The assay addresses T1, FLT3 (Homo sapiens, UniProt P36888).
T1 sequence (P36888 27-993): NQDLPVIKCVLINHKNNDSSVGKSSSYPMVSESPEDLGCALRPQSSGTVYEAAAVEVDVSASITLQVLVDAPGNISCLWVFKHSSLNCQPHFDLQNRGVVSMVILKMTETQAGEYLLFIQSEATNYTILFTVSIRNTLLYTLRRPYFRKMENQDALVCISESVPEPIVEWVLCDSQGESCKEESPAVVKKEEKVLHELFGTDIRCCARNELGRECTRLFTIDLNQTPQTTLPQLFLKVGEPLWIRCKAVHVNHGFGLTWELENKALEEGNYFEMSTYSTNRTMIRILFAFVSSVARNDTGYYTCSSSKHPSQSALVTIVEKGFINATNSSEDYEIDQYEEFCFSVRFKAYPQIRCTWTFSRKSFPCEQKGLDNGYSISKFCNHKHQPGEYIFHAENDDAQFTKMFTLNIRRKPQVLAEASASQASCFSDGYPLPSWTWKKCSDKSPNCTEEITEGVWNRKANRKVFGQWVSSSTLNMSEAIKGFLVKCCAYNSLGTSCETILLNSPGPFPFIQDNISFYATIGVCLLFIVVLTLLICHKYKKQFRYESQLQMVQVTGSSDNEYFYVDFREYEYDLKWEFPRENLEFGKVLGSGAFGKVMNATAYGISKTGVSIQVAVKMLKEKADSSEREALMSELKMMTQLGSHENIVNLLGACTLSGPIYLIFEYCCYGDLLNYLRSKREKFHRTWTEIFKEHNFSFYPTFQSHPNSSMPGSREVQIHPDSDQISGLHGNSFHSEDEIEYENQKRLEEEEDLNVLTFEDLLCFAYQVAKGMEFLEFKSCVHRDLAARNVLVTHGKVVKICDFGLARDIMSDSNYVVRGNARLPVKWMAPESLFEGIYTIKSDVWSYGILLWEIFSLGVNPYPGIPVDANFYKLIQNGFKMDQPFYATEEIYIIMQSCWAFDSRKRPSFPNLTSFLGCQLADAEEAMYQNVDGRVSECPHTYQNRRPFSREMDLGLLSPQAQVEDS
In words: FLT3 kinase inhibition IC50. The assay is classed as biochemical. The conditions noted are these: Example 6.

The record followed here is patent US10526309B2, “Pan-TAM inhibitors and Mer/Axl dual inhibitors” (The University of North Carolina at Chapel Hill, priority 2015, dated 2020).

`O[C@H]1CC[C@H](Nc2nc(Nc3ccccc3)ncc2-c2ccc(CN3CCCC3)cn2)CC1` [UNC4198A] returned an IC50 of 0.76 nM.
